Source: ChEMBL document CHEMBL1201862, “PubChem BioAssay data set” (2004)
Calls of active or inactive are those of the source.

What was measured:
[1] = biological target: T1, Apoptotic protease-activating factor 1 (Homo sapiens, UniProt O14727); format: functional
T1 sequence (O14727 whole entry): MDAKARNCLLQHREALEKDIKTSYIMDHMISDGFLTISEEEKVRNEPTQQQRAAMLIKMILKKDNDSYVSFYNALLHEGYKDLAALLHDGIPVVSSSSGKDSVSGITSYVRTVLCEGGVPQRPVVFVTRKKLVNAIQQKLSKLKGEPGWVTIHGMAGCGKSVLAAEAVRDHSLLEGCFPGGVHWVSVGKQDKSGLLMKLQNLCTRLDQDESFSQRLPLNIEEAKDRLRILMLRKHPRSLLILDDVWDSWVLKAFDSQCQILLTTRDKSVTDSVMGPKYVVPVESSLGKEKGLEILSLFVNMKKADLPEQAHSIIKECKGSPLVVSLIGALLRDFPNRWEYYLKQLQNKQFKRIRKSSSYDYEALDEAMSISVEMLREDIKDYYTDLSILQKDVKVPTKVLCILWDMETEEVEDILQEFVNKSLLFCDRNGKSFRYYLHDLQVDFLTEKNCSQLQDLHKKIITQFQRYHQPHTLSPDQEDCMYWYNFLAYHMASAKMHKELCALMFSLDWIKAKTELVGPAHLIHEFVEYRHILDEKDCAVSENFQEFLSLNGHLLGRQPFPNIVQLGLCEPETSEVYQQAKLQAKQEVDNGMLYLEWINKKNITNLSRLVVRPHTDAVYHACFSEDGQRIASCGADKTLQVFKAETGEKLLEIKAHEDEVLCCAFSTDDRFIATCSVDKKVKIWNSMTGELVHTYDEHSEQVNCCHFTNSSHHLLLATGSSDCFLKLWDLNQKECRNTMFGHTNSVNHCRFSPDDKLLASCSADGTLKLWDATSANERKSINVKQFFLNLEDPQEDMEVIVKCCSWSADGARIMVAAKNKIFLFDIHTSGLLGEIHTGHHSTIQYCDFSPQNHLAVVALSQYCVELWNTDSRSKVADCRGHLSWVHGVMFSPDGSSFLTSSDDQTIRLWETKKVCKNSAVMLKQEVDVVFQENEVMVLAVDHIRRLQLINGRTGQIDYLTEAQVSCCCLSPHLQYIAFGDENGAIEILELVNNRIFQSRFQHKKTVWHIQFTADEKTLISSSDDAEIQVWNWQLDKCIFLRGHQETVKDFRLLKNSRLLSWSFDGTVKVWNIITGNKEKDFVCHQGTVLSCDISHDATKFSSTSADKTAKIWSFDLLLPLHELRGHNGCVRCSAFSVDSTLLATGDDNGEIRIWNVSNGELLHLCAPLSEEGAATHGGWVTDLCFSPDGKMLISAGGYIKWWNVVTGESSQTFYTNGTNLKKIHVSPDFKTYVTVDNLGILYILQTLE

[2] = biological target: T2, Voltage-gated N-type calcium channel alpha-1B subunit/Amyloid beta A4 precursor protein-binding family A member 1 (Homo sapiens, UniProt Q00975+Q02410); format: protein assay
Large T antigen = Large T antigen (Simian virus 40, UniProt P03070); format: functional, Betapolyomavirus macacae;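 note: Confirmatory-stage PubChem screen for compounds that inhibit SV40 T antigen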
[3] = biological target: T2, Voltage-gated N-type calcium channel alpha-1B subunit/Amyloid beta A4 precursor protein-binding family A member 1; format: protein assay; remark: listed apart in the source
[4] = biological target: T3, Orexin/Hypocretin receptor type 1 (Homo sapiens, UniProt O43613); experiment: Homogeneous Time Resolved Fluorescence (HTRF)-based cell-based high throughput dose response assay for antagonists of the orexin 1 receptor (OX1R; HCRTR1). [Related pubchem assays (depositor defined):AID434989, AID435008, AID463079, AID485270, AID492963, AID492964, AID492965, AID493232, AID504717, AID504718]; format: functional
T3 sequence (O43613 whole entry): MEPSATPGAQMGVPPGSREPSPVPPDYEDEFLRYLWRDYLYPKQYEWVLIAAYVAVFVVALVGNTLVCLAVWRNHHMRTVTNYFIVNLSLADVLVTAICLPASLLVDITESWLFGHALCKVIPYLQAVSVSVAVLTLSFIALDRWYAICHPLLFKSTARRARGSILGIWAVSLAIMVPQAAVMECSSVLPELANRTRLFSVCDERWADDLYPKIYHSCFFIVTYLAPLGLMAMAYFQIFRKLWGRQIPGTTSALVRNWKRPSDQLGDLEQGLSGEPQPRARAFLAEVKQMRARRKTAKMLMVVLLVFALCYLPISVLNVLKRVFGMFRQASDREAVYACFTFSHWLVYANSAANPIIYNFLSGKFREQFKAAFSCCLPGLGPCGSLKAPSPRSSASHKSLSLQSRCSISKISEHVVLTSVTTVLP

CHO-K1 = experiment: (§1) Counterscreen for antagonists of the orexin 1 receptor (OX1R; HCRTR1): Homogeneous time resolved fluorescence (HTRF)-based cell-based dose response assay to identify antagonists of the parental CHO-K1 cell line. [Related pubchem assays (depositor defined):AID434989, AID435008, AID463079, AID485270, AID492963, AID492964, AID492965, AID493232, AID504699, AID504701]; format: functional; settings: Cricetulus griseus
Orexin receptor type 2 [5] = biological target: T4, Orexin receptor type 2 (Homo sapiens, UniProt O43614); experiment: Counterscreen assay for antagonists of the orexin 1 receptor (OX1R; HCRTR1): Fluorescence-based cell-based dose response assay for antagonists of the orexin 2 receptor (OX2R; HCRTR2), run by assay provider.; format: functional
T4 sequence (O43614 whole entry): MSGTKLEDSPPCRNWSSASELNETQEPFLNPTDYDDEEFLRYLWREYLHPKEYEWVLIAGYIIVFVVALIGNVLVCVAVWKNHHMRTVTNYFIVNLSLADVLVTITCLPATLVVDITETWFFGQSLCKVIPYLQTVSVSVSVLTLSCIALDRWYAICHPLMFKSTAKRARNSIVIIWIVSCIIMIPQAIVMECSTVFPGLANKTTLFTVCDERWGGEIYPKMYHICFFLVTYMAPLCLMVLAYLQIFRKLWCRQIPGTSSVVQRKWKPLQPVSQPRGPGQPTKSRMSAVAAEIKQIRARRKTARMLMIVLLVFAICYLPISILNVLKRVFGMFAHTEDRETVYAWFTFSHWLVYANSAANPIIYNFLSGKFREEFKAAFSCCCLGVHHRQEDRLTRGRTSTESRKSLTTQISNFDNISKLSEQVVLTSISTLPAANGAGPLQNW

[6] = as §1, with “Fluorescence-based” for “Homogeneous time resolved fluorescence (HTRF)-based”, “cell-based high throughput” for “cell-based”, “CHO” for “CHO-K1”; format: functional
Orexin receptor type 2 [7] = biological target: T4, Orexin receptor type 2; experiment: Counterscreen assay for antagonists of the orexin 1 receptor (OX1R; HCRTR1): Homogeneous Time Resolved Fluorescence (HTRF)-based cell-based dose response assay for antagonists of the orexin 2 receptor (OX2R; HCRTR2), run by assay provider.; format: functional
[8] = biological target: T3, Orexin/Hypocretin receptor type 1; experiment: Fluorescence-based cell-based high throughput dose response assay for antagonists of the orexin 1 receptor (OX1R; HCRTR1). [Related pubchem assays (depositor defined):AID434989, AID435008, AID463079, AID485270, AID492963, AID492964, AID492965, AID493232, AID504717, AID504718]; format: functional
Protein RecA = biological target: T5, Protein RecA (Mycobacterium tuberculosis, UniProt P9WHJ3); experiment: Fluorescence Cell-Free Homogeneous Dose Retest to Identify Inhibitors of RecA-Intein Splicing Activity. [Related pubchem assays (depositor defined):AID2097, AID2223, AID489010, AID492950]; format: functional
T5 sequence (P9WHJ3 whole entry): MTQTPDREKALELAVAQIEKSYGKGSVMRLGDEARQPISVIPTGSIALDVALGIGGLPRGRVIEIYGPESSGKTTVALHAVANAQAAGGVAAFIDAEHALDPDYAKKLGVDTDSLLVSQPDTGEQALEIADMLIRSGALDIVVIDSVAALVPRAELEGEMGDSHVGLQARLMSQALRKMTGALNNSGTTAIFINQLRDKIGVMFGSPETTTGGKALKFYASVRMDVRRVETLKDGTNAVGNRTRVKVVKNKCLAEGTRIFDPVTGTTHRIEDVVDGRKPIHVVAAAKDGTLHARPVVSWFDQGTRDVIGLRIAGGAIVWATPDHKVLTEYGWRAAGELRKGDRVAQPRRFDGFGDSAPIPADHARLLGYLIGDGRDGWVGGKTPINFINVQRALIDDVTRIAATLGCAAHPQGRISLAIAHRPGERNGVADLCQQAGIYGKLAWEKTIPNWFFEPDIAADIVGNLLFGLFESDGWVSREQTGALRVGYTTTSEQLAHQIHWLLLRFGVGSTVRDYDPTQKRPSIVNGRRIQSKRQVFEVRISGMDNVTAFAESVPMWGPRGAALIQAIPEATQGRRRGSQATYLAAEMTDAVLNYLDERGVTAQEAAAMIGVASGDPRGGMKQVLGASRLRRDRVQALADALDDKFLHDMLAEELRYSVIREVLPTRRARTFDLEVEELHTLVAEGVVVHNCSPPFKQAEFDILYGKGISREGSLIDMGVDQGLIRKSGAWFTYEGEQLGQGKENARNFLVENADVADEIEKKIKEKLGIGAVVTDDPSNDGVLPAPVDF

[9] = biological target: T6, Replicative DNA helicase DnaB (Mycobacterium tuberculosis, UniProt P9WMR3); experiment: DnaB intein splicing inhibitors, dose response, biochemical, cell-free fluorescence (AID 449749); format: functional
T6 sequence (P9WMR3 whole entry): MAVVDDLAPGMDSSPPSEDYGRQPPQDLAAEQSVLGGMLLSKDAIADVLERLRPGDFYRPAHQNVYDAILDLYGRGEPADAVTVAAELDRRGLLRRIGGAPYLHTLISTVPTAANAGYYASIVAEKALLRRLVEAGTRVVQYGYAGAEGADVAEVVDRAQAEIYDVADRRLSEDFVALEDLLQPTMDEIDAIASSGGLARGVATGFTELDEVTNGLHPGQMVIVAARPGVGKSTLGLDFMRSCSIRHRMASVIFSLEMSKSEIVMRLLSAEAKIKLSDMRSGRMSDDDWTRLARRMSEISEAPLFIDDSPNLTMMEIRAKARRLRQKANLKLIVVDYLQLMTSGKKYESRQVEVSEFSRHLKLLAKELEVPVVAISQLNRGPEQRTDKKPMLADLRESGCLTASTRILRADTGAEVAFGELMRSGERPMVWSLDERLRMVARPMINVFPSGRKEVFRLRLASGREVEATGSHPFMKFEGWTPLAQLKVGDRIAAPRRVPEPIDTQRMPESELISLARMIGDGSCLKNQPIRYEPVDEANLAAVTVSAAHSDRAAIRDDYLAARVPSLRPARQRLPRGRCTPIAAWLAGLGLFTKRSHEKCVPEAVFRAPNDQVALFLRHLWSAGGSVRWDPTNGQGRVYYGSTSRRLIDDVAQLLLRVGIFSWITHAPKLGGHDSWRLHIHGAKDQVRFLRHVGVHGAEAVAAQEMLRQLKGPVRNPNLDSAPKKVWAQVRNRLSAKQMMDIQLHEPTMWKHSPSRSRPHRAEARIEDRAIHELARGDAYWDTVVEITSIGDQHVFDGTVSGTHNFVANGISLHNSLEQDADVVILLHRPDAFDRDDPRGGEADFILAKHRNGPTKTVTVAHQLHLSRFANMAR

[10] = biological target: Glucose-6-phosphate 1-dehydrogenase (Homo sapiens, UniProt P11413); experiment: human G6PD enzyme inhibitors, dose response, selectivity assay for P. falciparum G6PD inhibitor project, biochemical, fluorescence (AID 504792); format: functional
Glucose-6-phosphate 1-dehydrogenase, sequence (P11413 whole entry): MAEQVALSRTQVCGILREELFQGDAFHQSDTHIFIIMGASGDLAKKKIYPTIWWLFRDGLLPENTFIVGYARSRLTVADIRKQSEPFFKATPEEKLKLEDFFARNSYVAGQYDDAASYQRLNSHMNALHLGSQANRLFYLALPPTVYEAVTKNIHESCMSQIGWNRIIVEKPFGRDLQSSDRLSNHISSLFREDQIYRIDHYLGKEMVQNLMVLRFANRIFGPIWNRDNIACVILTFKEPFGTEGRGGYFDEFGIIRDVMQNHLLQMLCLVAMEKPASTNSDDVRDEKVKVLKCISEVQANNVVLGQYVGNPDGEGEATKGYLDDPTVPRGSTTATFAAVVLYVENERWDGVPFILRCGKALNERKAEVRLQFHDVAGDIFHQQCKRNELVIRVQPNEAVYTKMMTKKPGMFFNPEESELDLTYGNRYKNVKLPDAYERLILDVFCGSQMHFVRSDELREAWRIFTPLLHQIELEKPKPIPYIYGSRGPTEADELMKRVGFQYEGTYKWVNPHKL

T2 sequence (Q00975 whole entry): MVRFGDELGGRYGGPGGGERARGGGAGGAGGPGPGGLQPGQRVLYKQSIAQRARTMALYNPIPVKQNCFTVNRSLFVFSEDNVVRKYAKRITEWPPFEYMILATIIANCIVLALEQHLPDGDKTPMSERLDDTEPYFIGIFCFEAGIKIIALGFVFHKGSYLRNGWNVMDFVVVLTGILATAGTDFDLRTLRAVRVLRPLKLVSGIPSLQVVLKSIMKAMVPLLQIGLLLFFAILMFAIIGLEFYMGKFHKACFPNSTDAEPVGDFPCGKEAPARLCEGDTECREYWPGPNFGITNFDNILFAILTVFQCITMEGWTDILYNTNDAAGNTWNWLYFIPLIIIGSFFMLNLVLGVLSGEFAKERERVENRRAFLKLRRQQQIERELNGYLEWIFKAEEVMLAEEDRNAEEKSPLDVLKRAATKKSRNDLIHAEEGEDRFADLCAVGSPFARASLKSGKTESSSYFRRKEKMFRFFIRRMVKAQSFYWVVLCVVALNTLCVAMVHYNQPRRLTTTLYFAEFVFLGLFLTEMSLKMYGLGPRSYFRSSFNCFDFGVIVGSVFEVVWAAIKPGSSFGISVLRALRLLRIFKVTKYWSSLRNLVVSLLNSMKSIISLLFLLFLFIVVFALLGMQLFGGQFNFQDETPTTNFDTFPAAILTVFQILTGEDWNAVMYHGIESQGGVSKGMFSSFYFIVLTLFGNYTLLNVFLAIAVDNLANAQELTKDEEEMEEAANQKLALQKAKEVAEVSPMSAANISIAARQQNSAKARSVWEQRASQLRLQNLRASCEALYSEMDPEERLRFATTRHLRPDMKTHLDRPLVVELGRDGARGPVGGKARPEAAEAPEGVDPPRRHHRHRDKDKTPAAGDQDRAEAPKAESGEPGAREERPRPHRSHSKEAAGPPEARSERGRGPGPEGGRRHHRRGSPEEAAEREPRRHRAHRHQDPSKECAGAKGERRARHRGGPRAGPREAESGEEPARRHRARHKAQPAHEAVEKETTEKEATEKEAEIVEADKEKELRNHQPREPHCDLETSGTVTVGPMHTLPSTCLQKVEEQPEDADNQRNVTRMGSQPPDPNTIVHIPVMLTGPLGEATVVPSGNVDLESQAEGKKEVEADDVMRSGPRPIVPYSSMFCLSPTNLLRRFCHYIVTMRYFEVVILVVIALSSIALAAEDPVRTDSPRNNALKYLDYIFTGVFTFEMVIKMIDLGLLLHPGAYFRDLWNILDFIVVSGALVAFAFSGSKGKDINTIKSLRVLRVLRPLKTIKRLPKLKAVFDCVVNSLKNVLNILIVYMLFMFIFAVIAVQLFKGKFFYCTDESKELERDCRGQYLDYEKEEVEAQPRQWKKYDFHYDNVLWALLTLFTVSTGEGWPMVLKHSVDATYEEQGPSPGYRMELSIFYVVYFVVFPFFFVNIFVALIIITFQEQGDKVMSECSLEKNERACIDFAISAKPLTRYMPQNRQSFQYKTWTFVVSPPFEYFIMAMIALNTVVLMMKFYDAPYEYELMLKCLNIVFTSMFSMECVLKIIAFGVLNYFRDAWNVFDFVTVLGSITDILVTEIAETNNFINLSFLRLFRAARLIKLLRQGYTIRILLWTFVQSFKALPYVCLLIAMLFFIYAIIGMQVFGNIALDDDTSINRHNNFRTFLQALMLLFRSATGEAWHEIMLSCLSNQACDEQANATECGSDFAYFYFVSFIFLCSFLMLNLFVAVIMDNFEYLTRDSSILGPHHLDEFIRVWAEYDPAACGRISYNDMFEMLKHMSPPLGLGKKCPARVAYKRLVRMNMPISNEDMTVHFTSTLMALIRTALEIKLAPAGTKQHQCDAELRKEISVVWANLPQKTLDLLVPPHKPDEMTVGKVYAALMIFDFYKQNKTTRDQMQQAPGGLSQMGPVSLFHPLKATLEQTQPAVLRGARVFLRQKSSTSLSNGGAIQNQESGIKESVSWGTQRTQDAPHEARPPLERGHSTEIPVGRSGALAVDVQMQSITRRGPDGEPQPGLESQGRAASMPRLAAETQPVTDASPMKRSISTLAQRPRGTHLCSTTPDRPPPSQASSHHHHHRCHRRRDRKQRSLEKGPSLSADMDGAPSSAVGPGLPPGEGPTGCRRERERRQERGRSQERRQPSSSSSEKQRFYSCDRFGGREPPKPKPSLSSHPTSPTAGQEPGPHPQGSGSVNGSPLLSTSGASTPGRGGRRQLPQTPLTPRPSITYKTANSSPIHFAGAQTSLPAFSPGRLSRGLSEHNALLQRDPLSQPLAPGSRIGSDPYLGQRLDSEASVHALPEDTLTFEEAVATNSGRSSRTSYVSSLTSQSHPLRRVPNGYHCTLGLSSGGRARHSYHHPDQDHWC
T2 sequence (Q02410 whole entry): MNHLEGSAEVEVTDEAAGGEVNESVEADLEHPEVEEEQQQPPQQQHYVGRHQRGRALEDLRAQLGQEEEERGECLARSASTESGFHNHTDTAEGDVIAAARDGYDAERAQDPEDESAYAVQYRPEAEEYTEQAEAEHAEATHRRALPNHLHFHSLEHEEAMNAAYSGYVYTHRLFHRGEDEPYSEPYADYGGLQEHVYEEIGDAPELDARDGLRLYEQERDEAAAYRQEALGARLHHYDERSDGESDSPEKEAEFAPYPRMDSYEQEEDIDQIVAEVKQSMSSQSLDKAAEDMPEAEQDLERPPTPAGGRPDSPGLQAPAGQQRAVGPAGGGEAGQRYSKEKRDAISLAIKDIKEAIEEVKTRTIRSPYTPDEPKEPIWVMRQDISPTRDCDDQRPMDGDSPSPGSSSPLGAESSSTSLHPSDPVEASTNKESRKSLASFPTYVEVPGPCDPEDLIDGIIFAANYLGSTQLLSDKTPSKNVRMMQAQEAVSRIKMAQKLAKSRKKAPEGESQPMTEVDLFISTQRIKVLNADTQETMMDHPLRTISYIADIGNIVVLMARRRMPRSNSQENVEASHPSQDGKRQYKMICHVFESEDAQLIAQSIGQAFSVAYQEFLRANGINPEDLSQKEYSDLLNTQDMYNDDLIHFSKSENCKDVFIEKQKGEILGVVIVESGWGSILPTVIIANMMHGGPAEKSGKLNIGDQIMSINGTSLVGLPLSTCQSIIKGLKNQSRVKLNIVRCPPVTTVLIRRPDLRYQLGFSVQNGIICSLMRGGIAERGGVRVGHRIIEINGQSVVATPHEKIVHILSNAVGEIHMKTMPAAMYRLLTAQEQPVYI
Large T antigen, sequence (P03070 whole entry): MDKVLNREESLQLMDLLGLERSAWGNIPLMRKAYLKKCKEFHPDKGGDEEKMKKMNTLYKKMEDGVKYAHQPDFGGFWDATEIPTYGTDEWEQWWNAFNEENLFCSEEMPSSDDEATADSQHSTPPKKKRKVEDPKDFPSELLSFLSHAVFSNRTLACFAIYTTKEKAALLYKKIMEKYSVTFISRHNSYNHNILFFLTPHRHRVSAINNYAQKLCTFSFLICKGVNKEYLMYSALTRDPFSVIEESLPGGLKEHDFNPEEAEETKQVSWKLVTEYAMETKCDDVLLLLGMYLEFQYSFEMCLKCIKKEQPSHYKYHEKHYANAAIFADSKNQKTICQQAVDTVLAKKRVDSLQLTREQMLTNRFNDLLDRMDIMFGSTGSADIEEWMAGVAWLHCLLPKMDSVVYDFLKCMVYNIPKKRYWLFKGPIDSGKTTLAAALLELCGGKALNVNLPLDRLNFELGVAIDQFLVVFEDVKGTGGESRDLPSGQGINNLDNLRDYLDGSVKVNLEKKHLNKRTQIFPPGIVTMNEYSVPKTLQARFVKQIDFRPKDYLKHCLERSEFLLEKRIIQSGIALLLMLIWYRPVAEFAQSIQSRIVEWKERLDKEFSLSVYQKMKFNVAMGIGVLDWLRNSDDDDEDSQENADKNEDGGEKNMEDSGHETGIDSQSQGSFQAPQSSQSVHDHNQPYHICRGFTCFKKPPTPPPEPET

SMILES | IC50 [1] | IC50 [2] | IC50 (Large T antigen) | IC50 [3] | IC50 [4] | IC50 (CHO-K1) | IC50 (Orexin receptor type 2 [5]) | IC50 [6] | IC50 (Orexin receptor type 2 [7]) | IC50 [8] | EC50 (Protein RecA) | AC50 [9] | IC50 [10]
CC1(C)[N+]([O-])=c2ccc([N+](=O)[O-])cc2=[N+]1[O-].NO | 11.7 µM (active) | 0.26 µM (active) | 6.55 µM (active) | 22.1 µM (active) | – | – | – | – | – | – | – | – | –
COC(=O)C1=C(c2ccccc2OCc2ccccc2)C[C@@H]2CC[C@H]1N2C(=O)NCCOc1ccccc1Cl | – | – | – | – | 3.71 µM (active) | > 66.2 µM (inactive) | 3.9 µM (active) | 48.6 µM (inactive) | > 50 µM (inactive) | > 16.6 µM (inactive) | – | – | –
Nc1ccc(N(CCO)CCO)cc1 | 88.3 µM (active) | – | – | – | – | – | – | – | – | – | > 380 µM (inconclusive) | 256 µM (active) | > 80 µM (inactive)
Cc1ccccc1NC(=O)C1CCCN1S(=O)(=O)c1ccccc1C(F)(F)F (stereo not given) | – | – | – | – | 0.352 µM (active) | > 66.2 µM (inactive) | 10.1 µM (inactive) | > 49.8 µM (inactive) | 2.34 µM (active) | 4.95 µM (active) | – | – | –
